In patent US20210032257A1, “(E)-1-(4-(DIMETHYLAMINO)BUT-2-ENOYL)PYRROLIDIN-3-YL 4-((3-ISOPROPYL-5-METHYLPYRAZOLO[1,5-A]PYRIMIDIN-7-YL)AMINO)PIPERIDINE-1-CARBOXYLATE FOR INHIBITING CDK7” (Eli Lilly and Company, priority 2017, published 2021):

Tests used:
Assay in all cases: Biomarker study proliferation (CellTiter-Glo)
Type in all cases: cell-based
OZ = tested on: OZ
Method in brief: (§1)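 First, cells are plated at 5000 per well and left overnight at 37 °C. Next, compound is added as a 10-point threefold series (10× dosing plate to 1× final). Then plates incubate 7 days, and CellTiter-Glo luminescence is measured.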

NCIH2196 = tested on: NCIH2196
Method in brief: as §1

HEC108 = tested on: HEC108
Method in brief: as §1

SNU1079 = tested on: SNU1079
Method in brief: as §1

NCIH1734 = tested on: NCIH1734
Method in brief: as §1

SNU245 = tested on: SNU245
Method in brief: as §1

PLCPRF5 = tested on: PLCPRF5
Method in brief: as §1

DMS79 = tested on: DMS79
Method in brief: as §1

HCC2218 = tested on: HCC2218
Method in brief: as §1

CT26 = tested on: CT26
Method in brief: as §1

SJRH30 = tested on: SJRH30
Method in brief: as §1

SKHEP1 = tested on: SKHEP1
Method in brief: as §1

MDAPCA2B = tested on: MDAPCA2B
Method in brief: as §1

CCRFCEM = tested on: CCRFCEM
Method in brief: as §1

U87MG = tested on: U87MG
Method in brief: as §1

NCIH522 = tested on: NCIH522
Method in brief: as §1

KE97 = tested on: KE97
Method in brief: as §1

NCIH2228 = tested on: NCIH2228
Method in brief: as §1

BT20 = tested on: BT20
Method in brief: as §1

[1] = 168 h, read-out: Anti-proliferation effect IC50

For `Cc1cc(NC2CCN(C(=O)O[C@H]3CCN(C(=O)/C=C/CN(C)C)C3)CC2)n2ncc(C(C)C)c2n1` [Example 1, [(3S)-1-[(E)-4-(dimethylamino)but-2-enoyl]pyrrolidin-3-yl] 4-[(3-isopropyl-5-methyl-pyrazolo[1,5-a]pyrimidin-7-yl)amino]piperidine-1-carboxylate], the IC50 (OZ; [1]) was 50 nM, the “Anti-proliferation effect % Inh.” value (OZ; OZ, LIVER, 7 days) was 77% and the “Anti-proliferation effect Outcome” value (OZ; OZ, LIVER, 7 days) was “Cytotoxic (cytotoxic (IC50<1 μM and % inhibition ≥70%))”. For the same molecule, the IC50 (NCIH2196; Homo sapiens, NCI-H2196, 168 h, read-out: Anti-proliferation effect IC50) was 123 nM, the “Anti-proliferation effect % Inh.” value (NCIH2196; NCIH2196, LUNG, 7 days) was 63% and the “Anti-proliferation effect Outcome” value (NCIH2196; NCIH2196, LUNG, 7 days) was “Cytostatic (cytostatic (IC50<1 μM and % inhibition <70%))”. The IC50 (HEC108; [1]) was 31 nM, the “Anti-proliferation effect % Inh.” value (HEC108; HEC108, ENDOMETRIUM, 7 days) was 90% and the “Anti-proliferation effect Outcome” value (HEC108; HEC108, ENDOMETRIUM, 7 days) was “Cytotoxic (cytotoxic (IC50<1 μM and % inhibition ≥70%))”. For the same molecule, the IC50 (SNU1079; [1]) was 38 nM, the “Anti-proliferation effect % Inh.” value (SNU1079; SNU1079, BILIARY, 7 days) was 89% and the “Anti-proliferation effect Outcome” value (SNU1079; SNU1079, BILIARY, 7 days) was “Cytotoxic (cytotoxic (IC50<1 μM and % inhibition ≥70%))”. The IC50 (NCIH1734; Homo sapiens, NCI-H1734, 168 h, read-out: Anti-proliferation effect IC50) was 24 nM, the “Anti-proliferation effect % Inh.” value (NCIH1734; NCIH1734, LUNG, 7 days) was 76% and the “Anti-proliferation effect Outcome” value (NCIH1734; NCIH1734, LUNG, 7 days) was “Cytotoxic (cytotoxic (IC50<1 μM and % inhibition ≥70%))”. For the same molecule, the IC50 (SNU245; [1]) was 1090 nM, the “Anti-proliferation effect % Inh.” value (SNU245; SNU245, BILIARY, 7 days) was −5% and the “Anti-proliferation effect Outcome” value (SNU245; SNU245, BILIARY, 7 days) was “Insensitive (insensitive (IC50≥1 μM))”. The IC50 (PLCPRF5; Homo sapiens, PLC-PRF-5, 168 h, read-out: Anti-proliferation effect IC50) was greater than 10000 nM, the “Anti-proliferation effect % Inh.” value (PLCPRF5; PLCPRF5, LIVER, 7 days) was 41% and the “Anti-proliferation effect Outcome” value (PLCPRF5; PLCPRF5, LIVER, 7 days) was “Insensitive (insensitive (IC50≥1 μM))”. The “Anti-proliferation effect % Inh.” value (DMS79; DMS79, LUNG, 7 days) was 50%, the “Anti-proliferation effect Outcome” value (DMS79; DMS79, LUNG, 7 days) was “Cytostatic (cytostatic (IC50<1 μM and % inhibition <70%))” and the IC50 (DMS79; Homo sapiens, DMS-79, 168 h, read-out: Anti-proliferation effect IC50) was 354 nM. For the same molecule, the “Anti-proliferation effect % Inh.” value (HCC2218; HCC2218, BREAST, 7 days) was 41%, the “Anti-proliferation effect Outcome” value (HCC2218; HCC2218, BREAST, 7 days) was “Cytostatic (cytostatic (IC50<1 μM and % inhibition <70%))” and the IC50 (HCC2218; Homo sapiens, HCC2218, 168 h, read-out: Anti-proliferation effect IC50) was 560 nM. The “Anti-proliferation effect % Inh.” value (CT26; CT26, INTESTINE, 7 days) was −47%, the “Anti-proliferation effect Outcome” value (CT26; CT26, INTESTINE, 7 days) was “Insensitive (insensitive (IC50≥1 μM))” and the IC50 (CT26; Mus musculus, CT26, 168 h, read-out: Anti-proliferation effect IC50) was greater than 10000 nM. The IC50 (SJRH30; Homo sapiens, SJRH30, 168 h, read-out: Anti-proliferation effect IC50) was 39 nM, the “Anti-proliferation effect % Inh.” value (SJRH30; SJRH30, SOFT TISSUE, 7 days) was 62% and the “Anti-proliferation effect Outcome” value (SJRH30; SJRH30, SOFT TISSUE, 7 days) was “Cytostatic (cytostatic (IC50<1 μM and % inhibition <70%))”. For the same molecule, the IC50 (SKHEP1; Homo sapiens, SK-HEP1, 168 h, read-out: Anti-proliferation effect IC50) was 118 nM, the “Anti-proliferation effect % Inh.” value (SKHEP1; SKHEP1, LIVER, 7 days) was 71% and the “Anti-proliferation effect Outcome” value (SKHEP1; SKHEP1, LIVER, 7 days) was “Cytotoxic (cytotoxic (IC50<1 μM and % inhibition ≥70%))”. For the same molecule, the IC50 (MDAPCA2B; MDA-PCa-2b, 168 h, read-out: Anti-proliferation effect IC50) was 6270 nM, the “Anti-proliferation effect % Inh.” value (MDAPCA2B; MDAPCA2B, PROSTATE, 7 days) was 17% and the “Anti-proliferation effect Outcome” value (MDAPCA2B; MDAPCA2B, PROSTATE, 7 days) was “Insensitive (insensitive (IC50≥1 μM))”. The “Anti-proliferation effect % Inh.” value (CCRFCEM; CCRFCEM, BLOOD, 7 days) was 96%, the “Anti-proliferation effect Outcome” value (CCRFCEM; CCRFCEM, BLOOD, 7 days) was “Cytotoxic (cytotoxic (IC50<1 μM and % inhibition ≥70%))” and the IC50 (CCRFCEM; Homo sapiens, CCRF-CEM, 168 h, read-out: Anti-proliferation effect IC50) was 40 nM. For the same molecule, the IC50 (U87MG; Homo sapiens, U-87 MG, 168 h, read-out: Anti-proliferation effect IC50) was 7360 nM, the “Anti-proliferation effect % Inh.” value (U87MG; U87MG, CNS, 7 days) was −5% and the “Anti-proliferation effect Outcome” value (U87MG; U87MG, CNS, 7 days) was “Insensitive (insensitive (IC50≥1 μM))”. For the same molecule, the IC50 (NCIH522; Homo sapiens, NCI-H522, 168 h, read-out: Anti-proliferation effect IC50) was 107 nM, the “Anti-proliferation effect % Inh.” value (NCIH522; NCIH522, LUNG, 7 days) was 50% and the “Anti-proliferation effect Outcome” value (NCIH522; NCIH522, LUNG, 7 days) was “Cytostatic (cytostatic (IC50<1 μM and % inhibition <70%))”. The “Anti-proliferation effect % Inh.” value (KE97; KE97, BLOOD, 7 days) was 58%, the “Anti-proliferation effect Outcome” value (KE97; KE97, BLOOD, 7 days) was “Cytostatic (cytostatic (IC50<1 μM and % inhibition <70%))” and the IC50 (KE97; KE-97, 168 h, read-out: Anti-proliferation effect IC50) was 158 nM. For the same molecule, the IC50 (NCIH2228; Homo sapiens, NCI-H2228, 168 h, read-out: Anti-proliferation effect IC50) was 276 nM, the “Anti-proliferation effect % Inh.” value (NCIH2228; NCIH2228, LUNG, 7 days) was 57% and the “Anti-proliferation effect Outcome” value (NCIH2228; NCIH2228, LUNG, 7 days) was “Cytostatic (cytostatic (IC50<1 μM and % inhibition <70%))”. The “Anti-proliferation effect % Inh.” value (BT20; BT20, BREAST, 7 days) was 45%, the “Anti-proliferation effect Outcome” value (BT20; BT20, BREAST, 7 days) was “Cytostatic (cytostatic (IC50<1 μM and % inhibition <70%))” and the IC50 (BT20; Homo sapiens, BT-20, 168 h, read-out: Anti-proliferation effect IC50) was 373 nM.
